Measured values published in ChEMBL document CHEMBL1629664, “Oral and parenteral therapeutic options for outpatient urinary infections caused by enterobacteriaceae producing CTX-M extended-spectrum beta-lactamases” (2009).
In brackets after ≈: the same amount, converted by molar mass. Each block holds one compound with its values, some of them ahead of it.

Tests used:
Assay type in all cases: functional
Enterobacteriaceae [1] = experiment: Antibacterial activity against beta-lactamase SHV or TEM ESBL-producing Enterobacteriaceae assessed as percent susceptible isolates by broth microdilution method
Enterobacteriaceae [2] = experiment: Antibacterial activity against beta-lactamase SHV or TEM ESBL-producing Enterobacteriaceae by broth microdilution method
Enterobacteriaceae [3] = experiment: Antibacterial activity against beta-lactamase CTX-M ESBL-producing Enterobacteriaceae assessed as percent susceptible isolates by broth microdilution method
Enterobacteriaceae [4] = experiment: Antibacterial activity against beta-lactamase CTX-M ESBL-producing Enterobacteriaceae by broth microdilution method
Enterobacteriaceae [5] = experiment: Antibacterial activity against beta-lactamase CTX-M ESBL-producing Enterobacteriaceae by agar dilution method
Enterobacteriaceae [6] = experiment: Antibacterial activity against beta-lactamase SHV or TEM ESBL-producing Enterobacteriaceae assessed as percent susceptible isolates by agar dilution method
Enterobacteriaceae [7] = experiment: Antibacterial activity against beta-lactamase CTX-M ESBL-producing Enterobacteriaceae assessed as percent susceptible isolates by agar dilution method
Enterobacteriaceae [8] = experiment: Antibacterial activity against beta-lactamase SHV or TEM ESBL-producing Enterobacteriaceae by agar dilution method
Enterobacteriaceae [9] = experiment: Antibacterial activity against beta-lactamase SHV or TEM ESBL-producing Enterobacteriaceae by twofold dilution method
Enterobacteriaceae [10] = experiment: Antibacterial activity against beta-lactamase SHV or TEM ESBL-producing Enterobacteriaceae assessed as percent susceptible isolates by twofold dilution method
Enterobacteriaceae [11] = experiment: Antibacterial activity against beta-lactamase CTX-M ESBL-producing Enterobacteriaceae by twofold dilution method
Enterobacteriaceae [12] = experiment: Antibacterial activity against beta-lactamase CTX-M ESBL-producing Enterobacteriaceae assessed as percent susceptible isolates by twofold dilution method
Klebsiella sp. = experiment: Antibacterial activity against beta-lactamase ESBL-producing Klebsiella sp. assessed as percent susceptible isolates by broth microdilution method
Escherichia coli [13] = experiment: Antibacterial activity against beta-lactamase ESBL-producing Escherichia coli assessed as percent susceptible isolates by broth microdilution method
Escherichia coli [14] = experiment: Antibacterial activity against beta-lactamase ESBL-producing Escherichia coli by broth microdilution method
Proteus mirabilis = experiment: Antibacterial activity against beta-lactamase ESBL-producing Proteus mirabilis assessed as percent susceptible isolates by broth microdilution method
Enterobacteriaceae [15] = experiment: Antibacterial activity against beta-lactamase SHV or TEM ESBL-producing Enterobacteriaceae by twofold dilution method in presence of beta-lactamase inhibitor clavulanate
Enterobacteriaceae [16] = experiment: Antibacterial activity against beta-lactamase CTX-M ESBL-producing Enterobacteriaceae assessed as percent susceptible isolates by twofold dilution method in presence of beta-lactamase inhibitor clavulanate
Enterobacteriaceae [17] = experiment: Antibacterial activity against beta-lactamase SHV or TEM ESBL-producing Enterobacteriaceae assessed as percent susceptible isolates by twofold dilution method in presence of beta-lactamase inhibitor clavulanate
Enterobacteriaceae [18] = experiment: Antibacterial activity against beta-lactamase CTX-M ESBL-producing Enterobacteriaceae by twofold dilution method in presence of beta-lactamase inhibitor clavulanate

MIC50 (Enterobacteriaceae [2]): 64 µg/mL (≈ 269 µM)
MIC90 (Enterobacteriaceae [2]): 64 µg/mL (≈ 269 µM)
MIC50 (Enterobacteriaceae [4]): 16 µg/mL (≈ 67.2 µM)
MIC90 (Enterobacteriaceae [4]): 64 µg/mL (≈ 269 µM)
SMILES: O=C1CN(/N=C/c2ccc([N+](=O)[O-])o2)C(=O)N1 [NITROFURANTOIN]
Activity (Enterobacteriaceae [1]): 45.5%
Activity (Enterobacteriaceae [3]): 73.9%

MIC50 (Enterobacteriaceae [9]): 4 µg/mL (≈ 10.1 µM)
MIC90 (Enterobacteriaceae [9]): 16 µg/mL (≈ 40.5 µM)
MIC50 (Enterobacteriaceae [11]): 16 µg/mL (≈ 40.5 µM)
MIC90 (Enterobacteriaceae [11]): 16 µg/mL (≈ 40.5 µM)
SMILES: C=CC1=C(C(=O)O)N2C(=O)[C@@H](NC(=O)/C(=N\O)c3csc(N)n3)[C@H]2SC1 [CEFDINIR]
Activity (Enterobacteriaceae [10]): 0%
Activity (Enterobacteriaceae [12]): 0%

MIC50 (Enterobacteriaceae [2]): 32 µg/mL (≈ 96.6 µM)
MIC90 (Enterobacteriaceae [2]): 32 µg/mL (≈ 96.6 µM)
MIC50 (Enterobacteriaceae [4]): 32 µg/mL (≈ 96.6 µM)
MIC90 (Enterobacteriaceae [4]): 32 µg/mL (≈ 96.6 µM)
SMILES: O=C(O)c1cn(C2CC2)c2cc(N3CCNCC3)c(F)cc2c1=O [CIPROFLOXACIN]
Activity (Enterobacteriaceae [1]): 36.4%
Activity (Enterobacteriaceae [3]): 4.3%

MIC50 (Enterobacteriaceae [15]): 32 µg/mL
MIC90 (Enterobacteriaceae [15]): 32 µg/mL
MIC50 (Enterobacteriaceae [9]): 4 µg/mL (≈ 10.9 µM)
MIC90 (Enterobacteriaceae [9]): 4 µg/mL (≈ 10.9 µM)
MIC50 (Enterobacteriaceae [11]): 4 µg/mL (≈ 10.9 µM)
MIC90 (Enterobacteriaceae [11]): 4 µg/mL (≈ 10.9 µM)
MIC50 (Enterobacteriaceae [18]): 32 µg/mL
MIC90 (Enterobacteriaceae [18]): 32 µg/mL
SMILES: CC1(C)S[C@@H]2[C@H](NC(=O)[C@H](N)c3ccc(O)cc3)C(=O)N2[C@H]1C(=O)O [AMOXICILLIN]
Activity (Enterobacteriaceae [16]): 10.9%
Activity (Enterobacteriaceae [17]): 45.5%

Further lines, the compound ahead of its results:

SMILES: C[C@H]1c2cccc(O)c2C(=O)C2=C(O)[C@]3(O)C(=O)C(C(N)=O)=C(O)[C@@H](N(C)C)[C@@H]3[C@@H](O)[C@@H]21.O [DOXYCYCLINE]
Activity (Enterobacteriaceae [1]): 18.2%
MIC50 (Enterobacteriaceae [2]): 16 µg/mL
MIC90 (Enterobacteriaceae [2]): 16 µg/mL
Activity (Enterobacteriaceae [3]): 10.9%
MIC50 (Enterobacteriaceae [4]): 16 µg/mL
MIC90 (Enterobacteriaceae [4]): 16 µg/mL

SMILES: C[C@@H]1O[C@@H]1P(=O)(O)O [FOSFOMYCIN]
MIC50 (Enterobacteriaceae [5]): 0.5 µg/mL (≈ 3.62 µM)
MIC90 (Enterobacteriaceae [5]): 64 µg/mL (≈ 464 µM)
Activity (Enterobacteriaceae [6]): 100%
Activity (Enterobacteriaceae [7]): 91.3%
MIC50 (Enterobacteriaceae [8]): 4 µg/mL (≈ 29 µM)
MIC90 (Enterobacteriaceae [8]): 8 µg/mL (≈ 57.9 µM)

SMILES: C[C@@H](O)[C@H]1C(=O)N2C(C(=O)O)=C(S[C@@H]3CN[C@H](C(=O)Nc4cccc(C(=O)O)c4)C3)[C@H](C)[C@H]12 [ERTAPENEM]
Activity (Klebsiella sp.): 100%
Activity (Escherichia coli [13]): 100%
Activity (Enterobacteriaceae [1]): 100%
MIC50 (Enterobacteriaceae [2]): 0.12 µg/mL (≈ 0.252 µM)
MIC90 (Enterobacteriaceae [2]): 1 µg/mL (≈ 2.1 µM)
MIC90 (Escherichia coli [14]): 0.06 µg/mL (≈ 0.126 µM)
Activity (Proteus mirabilis): 100%
Activity (Enterobacteriaceae [3]): 100%
MIC50 (Enterobacteriaceae [4]): 0.06 µg/mL (≈ 0.126 µM)
MIC90 (Enterobacteriaceae [4]): 0.25 µg/mL (≈ 0.526 µM)
